Experiments:
[1] = biological target: Glutaminyl-peptide cyclotransferase (Homo sapiens, UniProt Q16769); experiment: Biochemical QPCT and QPCTL Activity Assay
[2] = biological target: Glutaminyl-peptide cyclotransferase-like protein (Homo sapiens, UniProt Q9NXS2); experiment: Biochemical QPCT and QPCTL Activity Assay
Chain of Glutaminyl-peptide cyclotransferase-like protein (Q9NXS2 whole entry): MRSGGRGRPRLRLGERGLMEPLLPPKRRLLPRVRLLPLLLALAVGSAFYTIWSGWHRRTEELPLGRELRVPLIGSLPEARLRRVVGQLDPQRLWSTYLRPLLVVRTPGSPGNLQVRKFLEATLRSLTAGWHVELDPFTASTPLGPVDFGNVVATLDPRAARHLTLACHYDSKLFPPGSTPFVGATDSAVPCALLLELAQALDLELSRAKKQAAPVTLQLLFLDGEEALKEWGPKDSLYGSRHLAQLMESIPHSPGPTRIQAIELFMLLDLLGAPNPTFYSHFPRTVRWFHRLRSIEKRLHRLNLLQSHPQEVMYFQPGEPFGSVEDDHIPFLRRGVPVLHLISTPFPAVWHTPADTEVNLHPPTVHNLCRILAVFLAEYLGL

Chain of Glutaminyl-peptide cyclotransferase (Q16769 whole entry): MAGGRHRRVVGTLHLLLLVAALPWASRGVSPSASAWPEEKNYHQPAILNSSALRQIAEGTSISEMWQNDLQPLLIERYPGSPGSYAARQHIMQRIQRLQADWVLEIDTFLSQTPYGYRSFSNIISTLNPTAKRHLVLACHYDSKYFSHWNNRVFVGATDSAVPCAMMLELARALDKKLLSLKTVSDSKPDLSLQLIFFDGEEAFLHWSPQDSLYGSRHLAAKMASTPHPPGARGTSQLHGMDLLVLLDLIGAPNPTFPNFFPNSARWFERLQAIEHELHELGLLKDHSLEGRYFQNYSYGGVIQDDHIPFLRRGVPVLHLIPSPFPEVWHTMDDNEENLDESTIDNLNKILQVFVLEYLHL

Row | SMILES | IC50 [1] [nM] | IC50 [2] [nM]
1 | Cn1cnnc1C1(F)CCN(c2c(C#N)ccnc2-c2ccc(F)nc2)CC1 [US20240059675, Example 1] | 4 | 
2 | Cn1cnnc1C1(F)CCN(c2c(C#N)ccnc2-c2cnc(F)c(OCC3CC3)c2)CC1 [US20240059675, Example 26] |  | 1
3 | Cn1cnnc1C1(F)CCN(c2c(C#N)ccnc2-c2cnc3nn(C(C)(C)C(F)(F)F)cc3c2)CC1 [US20240059675, Example 29] | 3 | 2
